Measurements taken from patent US9844534B2, “PKC delta inhibitors for use as therapeutics” (Faller & Williams Technology, LLC, priority 2012, dated 2017).
pIC50: −log10 of the molar value.

Key:
PKC delta protein = conditions: longer periods of exposure; no effect on levels of other PKC isozymes; cited from earlier work
H727 cells [1] = test: Cytotoxicity assay (LDH release); format: cell-based, human
Description: Briefly, total culture medium was cleared by centrifugation. For assay of released LDH, supernatants were collected.

PKC alpha = biological target: T1, PKC alpha (Homo sapiens, UniProt P17252); test: PKC kinase activity assay (Omnia Kinase Assay); format: biochemical
T1 construct: purchased Invitrogen
Experimental: PKC Kinase Activity Assays: Assays were carried out using recombinant PKC alpha or PKC gamma, (Invitrogen) and the Omnia® Kinase Assays (Invitrogen) with a “PKC kinase-specific” peptide substrate. Incorporation of a chelation-enhanced fluorophore (CHEF) results in an increase in fluorescence ex360/em485) upon phosphorylation. The kit was used according to the manufacturer's instructions.

H727 cells [2] = test: Clonogenic assay; format: cell-based, human; conditions: H727, exposure 6-72 hr, replated without inhibitor
Experimental: Clonogenic Assays: 100,000 cells were seeded on 100 mm dishes 5 with 10 ml media per dish (Li et al. 2004). […] Cells were trypsinized; counted via Trypan Blue Exclusion Method in order to determine the number of live cells in the sample, and 500 live cells were seeded in triplicate onto 6 well plates. Cells were monitored for appropriate colony size and re-fed every three to four days. At Day 17, cells were stained with ethidium bromide (Guda et al. 2007) and counted using UVP LabWorks software.
LDH release assesses cytotoxic damage sufficient to compromise membrane integrity over a relatively short time-span. An alternative method, which assesses lethal, but not necessarily immediate, cumulative damage to the tumor cell is a clonogenic assay. In this assay, tumor cells which remain viable after exposure to the compound are tested for their ability to proliferate sufficiently over time to form colonies of tumor cells. H727 treated with vehicle or a PKC delta inhibitor at sub-optimal concentrations varying durations. After replating of viable cells in media without inhibitor, colony numbers were quantitated over time.

[3] = system: nontumorigenic murine or human cells; conditions: same culture conditions; cited from earlier work
PKC delta = PKC delta (Homo sapiens, UniProt Q05655); conditions: cultured cells, given as 'in vivo'; read-out: IC50, inhibition of PKC delta in cultured cells; cited from earlier work
BON1 cells = test: Cell proliferation assay (MTT/MTS); format: cell-based, human
Description: (§1) Cell Lines: BON1, a human foregut (pancreatic) carcinoid tumor cell line (Parekh et al. 1994) was obtained from Kjell Oberg (Uppsala University, Sweden) through Dr. Evan Vosburgh. H727 cells, derived from a human bronchopulmonary carcinoid tumor (Schuller et al. 1987), were purchased from ATCC. The CNDT 2.5 cell line, initially described as a human midgut carcinoid tumor cell line (Van Buren et al. 2007), was provided by Dr. Lee Ellis, (MD Anderson Cancer Center). The provenance of this cell line is currently under review by the originator. BONI, H727, MCF10 and CNDT 2.5 cells were propagated in 10% FBS (Invitrogen); Dulbecco's Modification of Earle's Media/Hams F-12 50:50 media (Cellgro); 2 mM L-Glutamine (Invitrogen); 200 U Penicillin/ml; 200 μg Streptomycin/ml (Invitrogen); 10 ng/ml Nerve Growth Factor (Invitrogen); 1×MEM Non-Essential Amino Acids (Cellgro); 1×MEM Vitamin Solution (Cellgro); 1 mM Sodium Pyruvate; 0.015 M HEPES buffer (pH7.3) (American Bioanalytical).
(§2) Cell Proliferation Assays—Cell proliferation was assessed using an MTT [3-(4,5-dimethylthiazol-2-yl)-2,5-diphenyltetrazolium bromide] assay (Roche, Mannheim, Germany). The number of viable cells growing in a single well on a 96-well microtiter plate was estimated by adding 10 μl of MTT solution (5 mg/ml in phosphate-buffered saline [PBS]). After 4 h of incubation at 37° C., the stain is diluted with 100 μl of dimethyl sulfoxide. The optical densities are quantified at a test wavelength of 570 nm and a reference wavelength of 690 nm on a multiwell spectrophotometer. In some assays, MTS was used as substrate (Promega, Madison, Wis.), and the absorbance of the product was monitored at 490 nm.

H727 cells [4] = test: Cell proliferation assay (MTT/MTS); format: cell-based, human
Description: as §1, §2

CNDT 2.5 cells = test: Cell proliferation assay (MTT/MTS); format: cell-based, human
Description: as §1, §2

Chain of PKC delta (Q05655 whole entry): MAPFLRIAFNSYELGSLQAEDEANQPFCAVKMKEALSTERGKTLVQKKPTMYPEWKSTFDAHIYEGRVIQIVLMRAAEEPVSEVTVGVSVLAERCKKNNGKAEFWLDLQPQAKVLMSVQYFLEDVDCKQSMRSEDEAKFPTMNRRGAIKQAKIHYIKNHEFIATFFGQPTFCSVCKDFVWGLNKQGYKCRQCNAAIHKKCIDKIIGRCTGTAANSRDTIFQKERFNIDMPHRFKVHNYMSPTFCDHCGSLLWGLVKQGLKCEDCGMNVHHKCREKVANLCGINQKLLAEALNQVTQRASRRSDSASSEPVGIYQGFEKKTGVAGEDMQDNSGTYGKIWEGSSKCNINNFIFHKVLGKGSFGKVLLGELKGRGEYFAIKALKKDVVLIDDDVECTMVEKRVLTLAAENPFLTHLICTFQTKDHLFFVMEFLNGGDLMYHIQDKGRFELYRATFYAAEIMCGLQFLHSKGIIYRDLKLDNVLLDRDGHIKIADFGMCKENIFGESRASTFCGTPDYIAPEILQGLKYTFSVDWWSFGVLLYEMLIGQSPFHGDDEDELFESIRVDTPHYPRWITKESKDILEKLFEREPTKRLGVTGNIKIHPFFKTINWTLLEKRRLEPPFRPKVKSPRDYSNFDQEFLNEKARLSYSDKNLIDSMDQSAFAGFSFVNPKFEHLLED

In the case of `CC(=O)c1c(O)c(C)c(O)c(Cc2c(O)c3c(c(C(=O)/C=C/c4ccccc4)c2O)OC(C)(C)C=C3)c1O` [rottlerin], the “down-regulation of PKC delta protein in cells” value (PKC delta protein) is listed as “significantly down-regulates PKC delta protein”, the “cytotoxicity as assessed by LDH release” value (H727 cells [1]; H727, 24, 48 and 72 hours) is listed as “cytotoxicity increasing as a function of time and concentration” and the “LDH release versus vehicle control, significance” value (H727 cells [1]; H727, p<0.003) is listed as “reached significance by 24 hr of exposure”. For the same molecule, the pIC50 (PKC alpha) was < 4.30, the “effect on clonogenic capacity versus DMSO control” value (H727 cells [2]) was “reached significance (p=0.0051) at 6 hr of exposure” and the “effect on growth of nontumorigenic cells” value [3] was “no significant effect on the growth”. For the same molecule, the pIC50 (PKC delta) was 5.30, the “reduction in relative cell numbers” value (BON1 cells; BON1, by 72 hrs, highest concentrations tested) was “significant reduction in relative cell numbers” and the “growth-inhibitory effect on long-term exposure” value (BON1 cells; BON1, sub-optimal concentration (10 μM), re-fed with inhibitor after 72 hr) was “growth-inhibitory effects persisted to 168 hr”. The “duration of exposure needed to inhibit proliferation (washout)” value (BON1 cells; BON1, sub-optimal concentration, inhibitor washed out, growth assessed over next 72 hrs) was “statistically significant by 24 hr of exposure”, the pIC50 (BON1 cells; Homo sapiens, BON1, by 48 hrs, read-out: IC50, decrease in cell number) was ~5.30 and the “reduction in relative cell numbers” value (H727 cells [4]; H727, by 72 hrs, highest concentrations tested) was “significant reduction in relative cell numbers”. For the same molecule, the pIC50 (H727 cells [4]; Homo sapiens, NCI-H727, H727, by 48 hrs, read-out: IC50, decrease in cell number) was ~5.30, the “reduction in relative cell numbers” value (CNDT 2.5 cells; CNDT 2.5, by 72 hrs, highest concentrations tested) was “significant reduction in relative cell numbers” and the “growth-inhibitory effect on long-term exposure” value (CNDT 2.5 cells; CNDT, sub-optimal concentration (10 μM), re-fed with inhibitor after 72 hr) was “growth-inhibitory effects persisted to 168 hr”. It also gave a pIC50 (CNDT 2.5 cells; Homo sapiens, CNDT 2.5, by 48 hrs, read-out: IC50, decrease in cell number) of ~5.30.
For “PKC delta-specific siRNA: siRNA duplexes targeting PKC delta (SEQ ID NO 1 and 2), obtained from Qiagen (chain 1 GAUGAAGGAGGCGCUCAGTT; chain 2 GGCUGAGUUCUGGCUGGACTT; chemistry not given here)”, the effect on proliferation (BON1 cells; BON1, siRNA knockdown, MTS) was “profound inhibition of proliferation” and the effect on proliferation (CNDT 2.5 cells; CNDT, siRNA knockdown, MTS) was “profound inhibition of proliferation”.
